Laboratory results: ChEMBL document CHEMBL1143231, “Specific fluorescent detection of fibrillar alpha-synuclein using mono- and trimethine cyanine dyes” (Bioorg Med Chem, 2008)

Key:
[1] = species on record: Homo sapiens; assay: Binding affinity to human beta amyloid protein 1-28 from Alzheimers disease patient
[2] = species on record: Homo sapiens; assay: Binding affinity to human beta amyloid protein 1-40 from Alzheimers disease patient

- Kb [1]: 1.85 10^6/M
- Kb [2]: 0.5 10^6/M
SMILES: Cc1ccc2c(c1)sc(-c1ccc(N(C)C)cc1)[n+]2C
